The values that follow come from article PMC7459823, “Characterization of Five Novel Anti-MRSA Compounds Identified Using a Whole-Animal Caenorhabditis elegans/Galleria mellonella Sequential-Screening Approach” (Antibiotics, 2020).

In general, MBC refers to the lowest tested concentration that kills the bacteria rather than only halting them. For orientation: MIC means the least concentration at which growth counts as inhibited.

In data set [1] the test system is MRSA-MW2 infection of C. elegans. The experiment in a line: C. elegans–MRSA-MW2 high-throughput screen (Z-score, alive versus dead worms). As to conditions: screening concentration 2.86 µg/mL, hits Z > 2. The data set is classed as in vivo, Caenorhabditis elegans. An excerpt: The five compounds: (4,4′,4″-(4-propyl-[1H]-pyrazole-1,3,5-triyl)trisphenol, PPT; (1S,2S)-2-[2-[[3-(1H-benzimidazol-2-yl)propyl]methylamino]ethyl]-6-fluoro-1,2,3,4-tetrahydro-1-(1-methylethyl)-2- naphthalenyl cyclopropanecarboxylate dihydrochloride, NNC; 4,5,6,7-tetrabromobenzotriazole, TBB; 3-[2-[2-chloro-4-[3-(2,6-dichlorophenyl)-5-(1-methylethyl)-4-isoxazolyl]methoxy]phenyl] ethenyl] benzoic acid, GW4064; and N-(cyclopropylmethoxy)-3,4,5-trifluoro-2-[(4-iodo-2-methylphenyl)amino] benzamide, PD198306) were purchased from Tocris Bioscience at the following levels of purity: PPT: >99.7%, NNC: >98%, TBB: >99%, GW4064: >97%, and PD198306: 98.8%. […] Hits were identified based on Z-scores. Z-scores are calculated from the ratio of alive versus dead worms after treatment with test compounds and represents the number of standard deviations (SD) the test compound differs from the mean using the formula Z = (x − μ)/σ; where x is the raw sample score, μ is the mean of the population and σ is the standard deviation of the population. Samples with Z > 2σ are considered hits.

The next data set relates to HepG2. As to conditions: human, 24 h.
Data set [2] has as its system MRSA MW2. Put plainly: Time-to-kill assay. The class given is cell-based, Staphylococcus aureus. As to conditions: MRSA MW2, compounds at 64 µg/mL, 4 hr; criteria MBC/MIC and 3 log10 CFU decrease. An excerpt:
Time-to-kill assays were used to further probe bactericidal/bacteriostatic properties against MRSA MW2 (Figure 3). Antibacterial compounds are generally considered bactericidal, if the MBC is no more than four times higher than the MIC. Bactericidal activity is defined as greater than 3 log10 -fold decrease in colony forming units, which is equivalent to 99.9% killing of the inoculum. If the MBC is outside this range, compounds are bacteriostatic. According to these criteria, all five compounds were bacteriostatic.
Time-to-kill assays were performed as previously described. Briefly, overnight cultures of MRSA-MW2 were diluted in fresh Tryptic Soy Broth (TSB) to a density of 10^8 cells/mL and placed into 10 mL tubes (Becton Dickinson and Company, Franklin Lakes, NJ, USA). Test compounds dissolved in DMSO over the concentration range 4–64 µg/mL were added and the tubes incubated at 37 °C. At periodic intervals, aliquots from each tube were serially diluted with TSB and plated onto tryptic soy agar (TSA) (Becton Dickinson and Company, Franklin Lakes, NJ, USA). CFUs were enumerated after overnight incubation at 37 °C. Assays were carried out in triplicate.

The test system of data set [3] is MRSA MW2. The experiment in a line: Broth microdilution antibacterial susceptibility (MIC/MBC), MRSA MW2. The class given is cell-based, Staphylococcus aureus. As to conditions: for MBC: MRSA MW2. The procedure:
(§1) In vitro antibacterial activities were determined using the broth microdilution method. Assays were performed as described in Clinical and Laboratory Standards Institute protocols in triplicate using cation-adjusted Muller–Hinton broth (Becton Dickinson and Company, Franklin Lakes, NJ, USA) in 96-well plates with a total assay volume of 100 µL. Two-fold serial dilutions of test compounds were prepared over the concentration range of 1–64 µg/mL. The bacterial concentration was adjusted to OD600 = 0.06. […] A 10 µL aliquot from each well in the MIC assays was plated onto Muller–Hinton agar (Becton Dickinson and Company, Franklin Lakes, NJ, USA) and incubated overnight at 37 °C. The lowest concentration of compound for which no growth was observed on agar plates was reported as the minimal bactericidal concentration (MBC).
(In general: In broth dilution the organism is exposed to a series of concentrations in liquid medium.)

The test system of the next data set is Pseudomonas aeruginosa. Put plainly: Broth microdilution MIC, Pseudomonas aeruginosa. As to conditions: read-out: MIC. The data set is classed as cell-based. The procedure: as §1
The subject of data set [4] is MRSA MW2. The experiment in a line: Sytox green membrane permeabilization. The data set is classed as cell-based, Staphylococcus aureus. As to conditions: compounds at 64 µg/mL, monitored over 1 h. The procedure: To determine whether the compounds target bacterial membranes, MRSA MW2 was treated with the compounds and uptake of the membrane-impermeable DNA-binding fluorescent dye Sytox green was monitored over 1 h (Figure 4).
Sytox Green (Life Technologies, Needham, MA, USA) membrane permeabilization assays were performed as previously described. The experiments were carried out in duplicate in 96-well plates. Cells were grown to log phase and were harvested by centrifuging at 3700× g for 5 min. The cells were washed twice with PBS and resuspended to OD600 = 0.2, following which 5 µM Sytox green was added to the cells and the bacteria-dye mixture were incubated in the dark for 30 mins.
Cell suspensions (50 µL) were added to 50 µL of test compounds (64 µg/mL in PBS) and fluorescence intensity was measured (excitation 485 nm, emission 530 nm) periodically over 60 min.

For data set [5], the system named is clinical S. aureus isolate BF1. Put plainly: Broth microdilution MIC, clinical S. aureus isolate BF1. The data set is classed as cell-based. As to conditions: Staphylococcus aureus; BF1; read-out: MIC. The procedure:
as §1

In another data set the test system is Klebsiella pneumoniae. The experiment in a line: Broth microdilution MIC, Klebsiella pneumoniae. The data set is classed as cell-based. As to conditions: read-out: MIC. The procedure: as §1
The subject of a further data set is Enterococcus faecium. Put plainly: Broth microdilution MIC, Enterococcus faecium. The class given is cell-based. As to conditions: read-out: MIC. The procedure:
as §1

Data set [6] has as its system clinical S. aureus isolate BF2. The experiment in a line: Broth microdilution MIC, clinical S. aureus isolate BF2. As to conditions: Staphylococcus aureus; BF2; read-out: MIC. The data set is classed as cell-based. The procedure:
as §1

Data set [7] concerns clinical S. aureus isolate BF4. The experiment in a line: Broth microdilution MIC, clinical S. aureus isolate BF4. The data set is classed as cell-based. As to conditions: Staphylococcus aureus; BF4; read-out: MIC. The procedure:
as §1

The test system of another data set is MRSA-MW2. Put plainly: Checkerboard synergy assay (FIC index). As to conditions: synergy FIC ≤ 0.5. The class given is cell-based, Staphylococcus aureus. The procedure: The combination of two antibiotics with different modes of action can reduce bacterial resistance and sometimes even restore clinical efficacy of an antibiotic that has lost effectiveness. The five compounds were tested against MRSA-MW2 in the presence of five clinical antibiotics from different classes (i.e., polymyxin B, gentamycin, erythromycin, doxycycline, and oxacillin).
Antibacterial synergy for combinations of the compounds with each other and with clinical antibiotics (doxycycline, gentamicin, polymyxin-B, oxacillin, and erythromycin) was measured using checkerboard assays. In short, Cultures of MRSA-MW2 were adjusted to OD600 = 0.06 and one compound was arrayed horizontally and other vertically in 96 well plates. The assays were carried out in triplicate, exactly as described for the antibacterial susceptibility assays. The inhibitory effects of compound combinations were evaluated using the Fractional Inhibitory Concentration (FIC) index, derived from the formula:FIC index = FICA + FICB = [A]/MICA + [B]/MICB
MIC of substance A tested in combination /MIC of substance A tested alone + MIC of substance B tested in combination/MIC of substance B tested alone. Synergy is indicated when FIC ≤ 0.5, indifference when 0.5 ≤ FIC ≤ 4, and antagonism when FIC > 4. Experiments were performed in duplicate and report the average FIC index.

Another data set concerns MKN-28. As to conditions: human, 24 h.

Values after ≈ are worked out from the molar mass of the structure shown. Like-named read-outs stand apart in the source and are kept apart here.

Protocol for HepG2: (§2) Mammalian cell lines HepG2 (hepatic cells), A549 (epithelial cells), and MKN-28 (gastric cells) were used to measure the anti-proliferative properties of test compounds, as described elsewhere [28]. Cells were grown in Dulbecco’s Modified Eagle Medium (DMEM) (Gibco, Waltham, MA, USA) supplemented with 10% Fetal Bovine Serum (FBS) (Gibco, Waltham, MA, USA) and 1% penicillin/streptomycin (Gibco, Waltham, MA, USA) and maintained at 37 °C in 5% CO2. After harvesting, the cells were suspended in DMEM and 100 µL was added to the wells of 96-well plates. The test compounds were serially diluted in serum and antibiotic free DMEM, added to the monolayer of cells, and incubated at 37 °C in 5% CO2 for 24 hr. Percentage survival was calculated by comparison to DMSO-treated vehicle controls. Assays were carried out in triplicate.
Protocol for MKN-28: as §2

Consider `Cc1cc(I)ccc1Nc1c(C(=O)NOCC2CC2)cc(F)c(F)c1F` [PD198306, N-(Cyclopropylmethoxy)-3,4,5-trifluoro-2-[(4-iodo-2-methylphenyl)amino]-benzamide], for which the Z-Score in data set [1] was 3.43. Besides, the results for the Eukaryotic cell cytotoxicity with HepG2 and with MKN-28 were 2 µg/mL and 16 µg/mL, respectively. In addition, in the data set on MRSA MW2 [2], the bactericidal/bacteriostatic classification entry is “bacteriostatic”. The MBC in the data set with MRSA MW2 [3] was more than 64 µg/mL; in the data set with MRSA MW2 [3] (Staphylococcus aureus, read-out: MBC) it was more than 64 µg/mL. The MIC in the data set with MRSA MW2 [3] (Staphylococcus aureus, MRSA MW2, 18 h, 37 °C, read-out: MIC) was 2 µg/mL (≈ 4.2 µM); in the data set with Pseudomonas aeruginosa, more than 64 µg/mL; in data set [5], 2 µg/mL (≈ 4.2 µM); in the data set on Klebsiella pneumoniae, more than 64 µg/mL; in the data set with Enterococcus faecium, 2 µg/mL (≈ 4.2 µM); in data set [6], 2 µg/mL (≈ 4.2 µM). In data set [7], the MIC was 2 µg/mL (≈ 4.2 µM). Besides, the “cellular fluorescence (Sytox green uptake)” value with MRSA MW2 [4] is listed as “no changes in cellular fluorescence”. The “Fractional Inhibitory Concentration (FIC) Index” value came to 2.0 with MRSA-MW2 (with Doxycycline); 0.5 in the data set on MRSA-MW2 (with Erythromycin); 0.625 in the data set with MRSA-MW2 (with Gentamycin); 0.75 in the data set with MRSA-MW2 (with Oxacillin); 1.0 in the data set with MRSA-MW2 (with Polymyxin B).
